In PubChem BioAssay (NCI):
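Step 1: Grow cells in 96-well plates. Step 2: Expose to compound for 48 hours at 5 concentrations. Step 3: Interpolate endpoints linearly; if unreached, use highest concentration. GI50 = concentration required for 50% inhibition of growth. Definition used: TGI = concentration required for complete inhibition of growth.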

Key:
Experiment in all cases: growth of human tumour cells (NCI), 48 h
M14 melanoma = tested on: M14 melanoma
NCI-H23 lung = tested on: NCI-H23 lung
HCT-15 colon = tested on: HCT-15 colon
SK-OV-3 ovarian = tested on: SK-OV-3 ovarian
HCT-116 colon = tested on: HCT-116 colon
HCC-2998 colon = tested on: HCC-2998 colon
OVCAR-8 ovarian = tested on: OVCAR-8 ovarian
NCI/ADR-RES ovarian = tested on: NCI/ADR-RES ovarian
SF-539 CNS = tested on: SF-539 CNS
SK-MEL-28 melanoma = tested on: SK-MEL-28 melanoma
A549 NSCLC = tested on: A549 NSCLC
SK-MEL-2 melanoma = tested on: SK-MEL-2 melanoma
MOLT-4 leukemia = tested on: MOLT-4 leukemia
RPMI-8226 leukemia = tested on: RPMI-8226 leukemia
U251 CNS = tested on: U251 CNS
A498 renal = tested on: A498 renal
UACC-257 melanoma = tested on: UACC-257 melanoma
RXF 393 renal = tested on: RXF 393 renal
OVCAR-5 ovarian = tested on: OVCAR-5 ovarian
LOX IMVI melanoma = tested on: LOX IMVI melanoma
HS 578T breast = tested on: HS 578T breast
KM12 colon = tested on: KM12 colon
UO-31 renal = tested on: UO-31 renal
EKVX NSCLC = tested on: EKVX NSCLC
SW-620 colon = tested on: SW-620 colon
NCI-H226 lung = tested on: NCI-H226 lung
UACC-62 melanoma = tested on: UACC-62 melanoma
OVCAR-4 ovarian = tested on: OVCAR-4 ovarian
HT29 colon = tested on: HT29 colon

With COc1cccc2c1nc1cccc(OC)c1[n+]2[O-] the GI50 (M14 melanoma) was 3.47 µM, the TGI (M14 melanoma) was 16.2 µM and the GI50 (NCI-H23 lung) was 2.56 µM. The TGI (NCI-H23 lung) was 18.9 µM, the GI50 (HCT-15 colon) was 2.93 µM and the TGI (HCT-15 colon) was 12.7 µM. The GI50 (SK-OV-3 ovarian) was 3.19 µM, the TGI (SK-OV-3 ovarian) was 15.7 µM and the GI50 (HCT-116 colon) was 3.64 µM. For the same compound, the TGI (HCT-116 colon) was 16.9 µM, the GI50 (HCC-2998 colon) was 1.5 µM and the TGI (HCC-2998 colon) was 6.98 µM. For the same compound, the GI50 (OVCAR-8 ovarian) was 4.4 µM, the TGI (OVCAR-8 ovarian) was 25 µM and the GI50 (NCI/ADR-RES ovarian) was 5.51 µM. The TGI (NCI/ADR-RES ovarian) was 28.4 µM, the GI50 (SF-539 CNS) was 3.91 µM and the TGI (SF-539 CNS) was 17.3 µM. The GI50 (SK-MEL-28 melanoma) was 6.31 µM, the TGI (SK-MEL-28 melanoma) was 20.2 µM and the GI50 (A549 NSCLC) was 7.8 µM. It also gave a TGI (A549 NSCLC) of 38.9 µM, a GI50 (SK-MEL-2 melanoma) of 5.44 µM and a TGI (SK-MEL-2 melanoma) of 18.4 µM. For the same compound, the GI50 (MOLT-4 leukemia) was 0.46 µM, the TGI (MOLT-4 leukemia) was 2.62 µM and the GI50 (RPMI-8226 leukemia) was 7.69 µM. It also gave a TGI (RPMI-8226 leukemia) of 31.4 µM, a GI50 (U251 CNS) of 6.83 µM and a TGI (U251 CNS) of 21.3 µM. The GI50 (A498 renal) was 2.87 µM, the TGI (A498 renal) was 16.2 µM and the GI50 (UACC-257 melanoma) was 13.1 µM. For the same compound, the TGI (UACC-257 melanoma) was 35 µM, the GI50 (RXF 393 renal) was 4.36 µM and the TGI (RXF 393 renal) was 22.1 µM. For the same compound, the GI50 (OVCAR-5 ovarian) was 27.8 µM, the TGI (OVCAR-5 ovarian) was 93 µM and the GI50 (LOX IMVI melanoma) was 4.23 µM. It also gave a TGI (LOX IMVI melanoma) of 18.4 µM, a GI50 (HS 578T breast) of 5.23 µM and a TGI (HS 578T breast) of 31.2 µM. The GI50 (KM12 colon) was 11.6 µM, the TGI (KM12 colon) was 28.4 µM and the GI50 (UO-31 renal) was 3.07 µM. For the same compound, the TGI (UO-31 renal) was 15.6 µM, the GI50 (EKVX NSCLC) was 13.7 µM and the TGI (EKVX NSCLC) was 30.9 µM. For the same compound, the GI50 (SW-620 colon) was 3 µM, the TGI (SW-620 colon) was 15.9 µM and the GI50 (NCI-H226 lung) was 10.6 µM. The TGI (NCI-H226 lung) was 23.8 µM, the GI50 (UACC-62 melanoma) was 3.35 µM and the TGI (UACC-62 melanoma) was 14.1 µM. It also gave a GI50 (OVCAR-4 ovarian) of 4.16 µM, a TGI (OVCAR-4 ovarian) of 20.9 µM and a GI50 (HT29 colon) of 1.55 µM.
